Source: patent US20230391765A1, “HETEROBIFUNCTIONAL COMPOUNDS AS DEGRADERS OF ENL” (ICAHN SCHOOL OF MEDICINE AT MOUNT SINAI, priority 2020, published 2023)

How the values were obtained:
[1] = In vivo pharmacokinetics (PK) study, plasma concentration; set-up: species or system C57BL/6 mice; conditions: mice, single 50 mg/kg IP injection
Procedure: Three C57BL/6 mice at 6-8 weeks of age were used in PK study for each time point. After a single dose intraperitoneal (IP) injection of ENL degrader LQ076-122 (50 mg/kg), plasma concentrations of degrader were measured at 6 time points (0.5, 1, 2, 4, 8 and 12 h) from each test animal. The concentrations of LQ076-122 in plasma were maintained above 2 μM for 6 h with the maximum plasma concentration of about 6 μM.
The standard mouse PK study was conducted by Charles River Laboratories. Three C57BL/6 mice at 6-8 weeks of age were used for each time point. After a single dose intraperitoneal (IP) injection of ENL degrader (50 mg/kg), plasma concentrations of degrader were measured at […] (in hours: 0.5, 1, 2, 4, 8 and 12 h) from each test animal.

[2] = target: T1, ENL (Homo sapiens, UniProt Q03111); assay: Western blot of ENL protein levels in MV4; 11 cells; format: cell-based
T1 construct: Cells were lysed and expression of endogenous ENL was assessed by Western blot analysis; host or cells: MV4;11
T1 sequence (Q03111 1-559): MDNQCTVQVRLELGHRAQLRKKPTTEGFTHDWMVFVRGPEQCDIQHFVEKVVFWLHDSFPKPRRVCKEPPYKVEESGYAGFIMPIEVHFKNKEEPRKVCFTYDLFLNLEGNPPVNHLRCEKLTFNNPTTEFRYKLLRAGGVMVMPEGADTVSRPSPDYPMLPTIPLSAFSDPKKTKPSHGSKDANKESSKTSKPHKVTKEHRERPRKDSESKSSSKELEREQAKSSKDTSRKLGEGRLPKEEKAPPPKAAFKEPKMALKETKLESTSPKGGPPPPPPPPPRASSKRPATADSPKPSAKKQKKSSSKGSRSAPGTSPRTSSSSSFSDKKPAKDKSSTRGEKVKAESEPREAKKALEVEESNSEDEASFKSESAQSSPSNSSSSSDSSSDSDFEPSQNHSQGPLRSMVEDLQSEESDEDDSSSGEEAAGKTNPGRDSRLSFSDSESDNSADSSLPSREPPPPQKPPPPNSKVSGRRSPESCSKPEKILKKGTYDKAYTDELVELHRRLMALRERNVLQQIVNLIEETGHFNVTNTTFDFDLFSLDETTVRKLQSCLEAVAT
Procedure, shortened: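 MV4;11 cells treated versus DMSO at 1 and 10 μM for 24 h or 6 h, or at 0.3-30 μM for 24 h; time course at 4 μM over 12-36 h. Proteasome dependence tested with 1 μM degrader ± 1 μM MG132 for 6 h. ENL (and GAS41) levels in total lysates assessed by Western blot with GAPDH/β-actin loading controls.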

[3] = test system: ENL target genes; assay: RT-qPCR of ENL target genes in MOLM13 cells; format: cell-based; conditions: MOLM13 cells, 0.5, 1, 2, 4 and 8 μM for 24 h
Procedure: MOLM13 cells were treated with LQ076-122 (FIG. 14A) and LQ081-108 (FIG. 14B) at 0.5, 1, 2, 4, and 8 μM for 24 h. […] RT-qPCR analysis was performed to detect the mRNA levels of selected ENL target genes.
Total RNA was extracted using the RNeasy Plus kit (Qiagen) and reverse-transcribed using the iScript cDNA Synthesis kit (Bio-Rad). RT-qPCR was performed using the Power SYBR Green PCR Master Mix (Applied Biosystems) on the CFX96 Real-Time PCR system (Bio-Rad). Gene expressions were calculated following normalization to 18s rRNA amounts using the comparative cycle threshold (Ct) method.

[4] = target: T1, ENL; assay: Western blot of ENL protein levels in MOLM13 cells; format: cell-based
Procedure, shortened: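 Leukemia cells (MOLM13, MV4;11, Jurkat) treated with degraders in DMSO at 0–10 μM for 6 h or 24 h, or at 4 μM (MV4;11) / 8 μM (MOLM13) over 12–36 h. ENL levels read by Western blot of total lysates, GAPDH/β-actin loading controls; DMSO vehicle control.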

- concentration in plasma maintained for 6 h [1]: above 2 μM
- maximum plasma concentration [1]: about 6 μM
- reduction of ENL protein levels ([2]; 11 cells, 10 μM, 24 h): effective in reducing ENL protein levels
Structure (SMILES): Cc1ncsc1-c1ccc(CNC(=O)[C@@H]2C[C@@H](O)CN2C(=O)[C@@H](NC(=O)CCCCCCCCCCNC(=O)c2ccc(C(=O)Nc3ccc4[nH]c(CN5CCC[C@@H]5C)nc4c3)cc2)C(C)(C)C)cc1 [LQ076-122, N^1-(11-(((S)-1-((2S,4R)-4-hydroxy-2-((4-(4-methylthiazol-5-yl)benzyl)carbamoyl)pyrrolidin-1-yl)-3,3-dimethyl-1-oxobutan-2-yl)amino)-11-oxoundecyl)-N^4-(2-(((S)-2-methylpyrrolidin-1-yl)methyl)-1H-benzo[d]imidazol-5-yl)terephthalamide]
- reduction of ENL protein levels ([2]; 11 cells, 0-8 μM for 24 h): reduced ENL protein levels in a concentration-dependent manner
- reduction of ENL protein levels, time course ([2]; 11 cells, 4 μM for 12, 16, 20, 24 and 36 h): reduced ENL protein levels in a time-dependent manner
- reduction of ENL protein level ([2]; 11 cells, 0.3, 1, 3, 10 and 30 μM for 24 h): selectively reduced the ENL protein level
- reduction of ENL protein levels ([2]; 11 cells, 0.3, 1, 3 and 10 μM for 12 and 24 h): reduced ENL protein levels in a concentration- and time-dependent manner
- ENL target gene expression (mRNA levels) [3]: reduced ENL target gene expression in a concentration-dependent manner
- reduction of ENL protein levels ([4]; 0-8 μM for 24 h): reduced ENL protein levels in a concentration-dependent manner
- reduction of ENL protein levels, time course ([4]; 8 μM for 12, 16, 20, 24 and 36 h): reduced ENL protein levels in a time-dependent manner
